# Measured values as given in patent US10233180B2, “Substituted nitrogen-containing heterocyclic derivatives, pharmaceutical compositions comprising the same and applications of antitumor thereof” (ZHEJIANG UNIVERSITY, priority 2014, dated 2019).
# Like-named read-outs stand apart in the source and are kept apart here.
# Key:
# [1] = system: Human ovarian cancer cell strain OVCAR-8; experiment: MTT assay, inhibition of tumor cell growth in vitro, 72 h; type: cell-based; conditions: OVCAR-8, MTT, read-out: Antitumor proliferative activities of tumor cell (IC50, μM) OVCAR-8
# Procedure: (§1) First, inhibitory activity on tumor proliferation in vitro is determined and the structure activity relationship is preliminarily studied, in which different solid tumor cell strains are selected for determining the antitumor activities in vitro of the synthesized compounds.
# (§2) Cell strains: Human ovarian cancer cell strain (OVCAR8), colon adenocarcinoma cell strain (HCT-116)
# Medium: OVCAR8: RPMI 1640+Fetal Bovine Serum
# (§3) Preparing method of medicines: Dissolving the medicine in DMSO to make a 50 mM stock solution, and diluting it according to a certain ratio to obtain 5 different concentrations.
# (§4) Two selected tumor cells OVCAR8 and HCT-116 are incubated at 37° C. in a 5% CO2 incubator, which are subcultured when cells grow up to a density of 70˜90% (adherent cells are subcultured after digesting by Duck's EDTA) for later experiments.
# (§5) Compounds are dissolved and diluted by dimethyl sulfoxide (DMSO), and tumor cells OVCAR8 and HCT-116 are seeded in a 96-well plate at a density of 4000 cells/200 μl/well, 1 μl of the compounds are added to each well with the final concentration of 50 μM, 10 μM, 2 μM, 0.4 μM and 0.08 μM, which is incubated for 72 h at 37° C. in a 5% CO2 incubator with DMSO (1%) as blank control.
# (§6) The calculating formula of cell inhibitory rate is: cell inhibitory rate %=(the OD value of the control group−the OD value of the medication group)/the OD value of the control group×100%, the half maximal inhibitory concentration (IC50) is obtained by Bliss method.
# [2] = target: T1, Akt1 (Homo sapiens, UniProt P31749); experiment: AKT1/PKBα KinEASE FP Fluorescein Green Assay (fluorescence polarization kinase kit); type: biochemical; conditions: 1 h reaction, read-out: Inhibitory activities against Akt1 (IC50)
# T1 construct: purchased 32-021
# T1 sequence (P31749 whole entry): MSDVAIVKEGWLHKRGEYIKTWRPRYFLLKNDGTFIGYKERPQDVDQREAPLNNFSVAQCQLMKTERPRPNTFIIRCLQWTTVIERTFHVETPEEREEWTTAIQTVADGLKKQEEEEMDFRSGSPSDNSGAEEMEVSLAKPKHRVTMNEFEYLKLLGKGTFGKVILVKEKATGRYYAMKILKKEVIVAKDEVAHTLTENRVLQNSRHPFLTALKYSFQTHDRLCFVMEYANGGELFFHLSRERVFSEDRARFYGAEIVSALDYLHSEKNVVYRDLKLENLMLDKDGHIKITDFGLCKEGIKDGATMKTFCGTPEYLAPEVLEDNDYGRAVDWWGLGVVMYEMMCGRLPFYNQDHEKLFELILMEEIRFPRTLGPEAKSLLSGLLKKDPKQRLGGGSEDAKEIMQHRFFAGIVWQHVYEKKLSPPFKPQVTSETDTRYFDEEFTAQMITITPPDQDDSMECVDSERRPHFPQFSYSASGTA
# Procedure: Second, method for determining the inhibitory activities of substituted nitrogen-containing heterocyclic derivatives in the present invention against Akt1 enzyme:
# The inhibitory activities of compounds against AKT1/PKBα are determined by using AKT1/PKBα KinEASE™ FP Fluorescein Green Assay (Green fluorescence detection system of Kinase).
# Principle adopted by the fluorescence polarization detection of protein kinase B is a competitive reaction: the phosphorylated tracers labeled with fluorescence will compete with unlabeled phosphorylated products produced by reacting with protein kinase B to combine anti-serine antibodies. […] However, in the reaction mixture containing phosphorylated products, fewer tracers will combine with antibodies (fluorescent tracers are replaced from the antibodies), and signals sent our occur depolarizing. Therefore, the change of polarization is directly related to the activity of protein kinase B in the reaction.
# Each of 0.25 μl of compounds with a concentration of 50 μM and the positive control are added to a 384-well plate at room temperature, and each sample is provided with three parallel wells, and then 10 μl of STK Substrate 3 Working Solution, 5 μl of AKT1/PKBα Working Solution, 10 μl of ATP Working Solution are added to each sample respectively, the mixtures are slightly vibrated and shaked for a few minutes. Reaction is carried out just after the adding 10 μl of ATP Working Solution, from this time, reacting for 1 h. After 1 h, 5 μl of STK Stop Mix and 5 μl of STK Antibody Mix are added to each sample respectively to stop the reaction. The samples are maintained for 4 h at room temperature after adding is completed, the polarization values of samples are determined by fluorescence polarization of Microplate Reader (Detection of the signals is valid within 24 h), the inhibitory rate of compounds against the enzyme is calculated by polarization value, and thereby IC50 is calculated.
# Experiment is set up four control groups at the same time, which are Buffer Control Wells, Tracer Control Wells, No Enzyme Wells and blank control of dimethyl sulfoxide, respectively. Thus obtained data are used to calculate the inhibitory rate (the preparation methods of above various solution required for determining the activities of compounds against enzyme refer to the specification of the kit of AKT1/PKBα KinEASE™ FP Fluorescein Green Assay Catalog #32-021).
# [3] = system: human colon cancer cell strain HCT-116; experiment: MTT assay, inhibition of tumor cell growth in vitro, 72 h; type: cell-based; conditions: HCT-116, MTT, read-out: Antitumor proliferative activities of tumor cell (IC50, μM) HCT-116 (converted)
# Procedure: as §1, §2
# HCT-116: RPMI 1640+Fetal Bovine Serum
# as §3, §4, §5, §6
IC50 ([1]; Homo sapiens),IC50 [2],IC50 ([3]; Homo sapiens),IC50 [1],IC50 [3],SMILES
6.67 µM,0.626 µM,31.1 µM,,,"Cc1cnn(C)c1-c1cnc(C(=O)N[C@@H]2CNCC[C@H]2c2ccc(F)c(F)c2)cc1F [Compound 62, 4-fluoro-5-(1,4-dimethyl-1H-pyrazol-5-yl)-N-((3S,4S)-4-(3,4-difluorophenyl)piperidin-3-yl)pyridinyl-2-formamide]"
2.69 µM,0.087 µM,10.3 µM,,,"Cc1cnn(C)c1-c1cnc(C(=O)N[C@H]2CNC[C@@H]2c2ccc(F)c(F)c2)cc1F (racemic) [Compound 70, 4-fluoro-5-(1,4-dimethyl-1H-pyrazol-5-yl)-N-(3,4-trans-4-(3,4-difluorophenyl)pyrrolidin-3-yl)pyridinyl-2-formamide]"
1.26 µM,0.014 µM,1.47 µM,,,"Cn1ncc(Cl)c1-c1ccc(C(=O)N[C@@H]2CNCC[C@H]2c2cccc(F)c2)cc1Cl [Compound 86, 3-chloro-4-(4-chloro-1-methyl-1H-pyrazol-5-yl)-N-((3S,4S)-4-(3-fluorophenyl)piperidin-3-yl)benzamide]"
1.12 µM,0.009 µM,0.42 µM,,,Cn1ncc(Cl)c1-c1ccc(C(=O)N[C@@H]2CNC(CCO)C[C@H]2c2ccc(F)c(F)c2)cc1 (some centres unmarked) [Compound 100]
1.07 µM,0.016 µM,1.25 µM,,,"Cn1ncc(Cl)c1-c1cnc(C(=O)N[C@@H]2CNCC[C@H]2c2cccc(F)c2)cc1Cl [Compound 92, 4-chloro-5-(4-chloro-1-methyl-1H-pyrazol-5-yl)-N-((3S,4S)-4-(3-fluorophenyl)piperidin-3-yl)picolinamide]"
4.19 µM,0.007 µM,0.44 µM,,,"Cn1nccc1-c1ccc(C(=O)N[C@@H]2CNCC[C@H]2c2cccc(F)c2)s1 [Compound 146, N-((3S, 4S)-4-(3-fluorophenyl)piperidin-3-yl)-5-(1-methyl-1H-pyrazol-5-yl)thiophene-2-formamide]"
0.94 µM,0.001 µM,2.51 µM,,,"Cn1ncc(Cl)c1-c1ccc(C(=O)N[C@@H]2CNCC[C@H]2c2ccc(Cl)cc2)c(C(F)(F)F)c1 [Compound 80, 4-(4-chloro-1-methyl-1H-pyrazol-5-yl)-N-((3S,4S)-4-(4-chlorophenyl)piperidin-3-yl)-2-(trifluoromethyl)benzamide]"
7.89 µM,0.008 µM,5.82 µM,,,"Cn1ncc(Cl)c1-c1cnc(C(=O)N[C@@H]2CNCC[C@H]2c2ccc(F)c(F)c2)nc1 [Compound 93, 5-(4-chloro-1-methyl-1H-pyrazol-5-yl)-N-((3S,4S)-4-(3,4-difluorophenyl)piperidin-3-yl)pyrimidine-2-formamide]"
2.01 µM,0.812 µM,12.6 µM,,,"Cc1cc(-c2c(Cl)cnn2C)cc(C(=O)N[C@H]2CNCC[C@@H]2c2ccccc2)n1 (relative stereo) [Compound 45, 6-methyl-4-(4-chloro-1-methyl-1H-pyrazol-5-yl)-N-(3,4-trans-4-phenylpiperidin-3-yl)pyridinyl-2-formamide]"
1.88 µM,0.001 µM,0.43 µM,,,"CCC[C@H]1CNC[C@@H](NC(=O)c2cc(-c3c(Cl)cnn3C)c(Cl)o2)[C@@H]1c1cccc(F)c1 [Compound 137, 5-chloro-4-(4-chloro-1-methyl-1H-pyrazol-5-yl)-N-((3S, 4S, 5R)-4-(3-fluorophenyl)-5-propylpiperidin-3-yl)furan-2-formamide]"
0.43 µM,0.002 µM,1.02 µM,,,"Cn1ncc(Cl)c1-c1cc(C(=O)N[C@@H]2CNC(CCn3cncn3)C[C@H]2c2ccc(Cl)c(Cl)c2)oc1Cl (stereo partly drawn) [Compound 122, N-((3S,4S)-6-(2-(1H-1,2,4-triazol-1-yl)ethyl)-4-(3,4-dichlorophenyl)piperidin-3-yl)-5-chloro-4-(4-chloro-1-methyl-1H-pyrazol-5-yl)furan-2-formamide]"
1.71 µM,0.003 µM,2.43 µM,,,"CNC(=O)CC1C[C@@H](c2ccc(F)c(F)c2)[C@H](NC(=O)c2cc(-c3c(Cl)cnn3C)c(Cl)s2)CN1 (stereo partly drawn) [Compound 104, 5-chloro-4-(4-chloro-1-methyl-1H-pyrazol-5-yl)-N-((3S,4S)-4-(3,4-difluorophenyl)-6-(2-(methylamido)-2-oxoethyl)piperidin-3-yl)thiophene-2-formamide]"
1.22 µM,0.045 µM,3.78 µM,,,"Cn1ncc(Cl)c1-c1coc(C(=O)N[C@H]2CNCC[C@@H]2c2ccc(Cl)cc2)c1 (racemic) [Compound 23, 4-(4-chloro-1-methyl-1H-pyrazol-5-yl)-N-(3,4-trans-4-(4-chlorphenyl)piperidin-3-yl)furan-2-formamide]"
2.54 µM,0.021 µM,1.56 µM,,,"Cn1ncc(Cl)c1-c1ccc(C(=O)N[C@@H]2CNCC[C@H]2c2ccc(Cl)cc2)cc1C#N [Compound 76, 4-(4-chloro-1-methyl-1H-pyrazol-5-yl)-N-((3S,4S)-4-(4-chlorophenyl)piperidin-3-yl)-3-cyanobenzamide]"
0.33 µM,0.002 µM,0.84 µM,,,"Cn1ncc(Cl)c1-c1cc(C(=O)N[C@@H]2CNC(CC(O)CO)C[C@H]2c2ccc(Cl)c(Cl)c2)oc1Cl (stereo partly drawn) [Compound 112, 5-chloro-4-(4-chloro-1-methyl-1H-pyrazol-5-yl)-N-((3S,4S)-4-(3,4-dichlorophenyl)-6-(2,3-dihydroxypropyl)piperidin-3-yl)furan-2-formamide]"
3.68 µM,0.001 µM,5.01 µM,,,"Cn1ncc(Cl)c1-c1cc(C(=O)N[C@@H]2CNC(CC(=O)O)C[C@H]2c2ccc(Cl)c(Cl)c2)oc1Cl (stereo partly drawn) [Compound 116, 2-((4S,5S)-5-(5-chloro-4-(4-chloro-1-methyl-1H-pyrazol-5-yl)furan-2-formamide)-4-(3,4-dichlorophenyl)piperidin-2-yl)acetic acid]"
2.61 µM,0.116 µM,11.1 µM,,,"Cc1cnn(C)c1-c1cnc(C(=O)N[C@H]2CNC[C@@H]2c2ccc(C(F)(F)F)cc2)cc1F (racemic) [Compound 71, 4-fluoro-5-(1,4-dimethyl-1H-pyrazol-5-yl)-N-(3,4-trans-4-(4-trifluoromethylphenyl)pyrrolidin-3-yl)pyridinyl-2-formamide]"
4.44 µM,0.009 µM,2.1 µM,,,"Cn1ncc(Cl)c1-c1ccc(C(=O)N[C@@H]2CNCC[C@H]2c2ccc(Cl)c(C(F)(F)F)c2)c(F)c1 [Compound 84, 4-(4-chloro-1-methyl-1H-pyrazol-5-yl)-N-((3S,4S)-4-(4-chloro-3-(trifluoromethyl)phenyl)piperidin-3-yl)-2-fluorobenzamide]"
5.69 µM,0.018 µM,1.83 µM,,,Cc1c(C(=O)N[C@H]2CNCC[C@@H]2C2CCCC(Cl)C2)sc(Cl)c1-c1ncnn1C (some centres unmarked) [Compound 18]
8.44 µM,0.188 µM,3.85 µM,,,"Cc1cnn(C)c1-c1cnc(C(=O)N[C@H]2CNCC[C@@H]2c2ccc(F)c(F)c2)cc1F [Compound 61, 4-fluoro-5-(1,4-dimethyl-1H-pyrazol-5-yl)-N-((3R,4R)-4-(3,4-difluorophenyl)piperidin-3-yl)pyridinyl-2-formamide]"
,,,7.27 µM,5.2 µM,"NC1(C(=O)N[C@@H](CCO)c2ccc(Cl)cc2)CCN(c2nc[nH]c3nccc2-3)CC1 [AZD5363, reference compound]"
